Consider 1 molecule from ChEMBL document CHEMBL5120977, “Orexin Receptor Agonists as Possible Treatment for Narcolepsy and Idiopathic Hypersomnia” (ACS Med Chem Lett, 2022).

This assay concerns the target T1, Orexin receptor type 2 (Homo sapiens, UniProt O43614).
T1 sequence (O43614 whole entry): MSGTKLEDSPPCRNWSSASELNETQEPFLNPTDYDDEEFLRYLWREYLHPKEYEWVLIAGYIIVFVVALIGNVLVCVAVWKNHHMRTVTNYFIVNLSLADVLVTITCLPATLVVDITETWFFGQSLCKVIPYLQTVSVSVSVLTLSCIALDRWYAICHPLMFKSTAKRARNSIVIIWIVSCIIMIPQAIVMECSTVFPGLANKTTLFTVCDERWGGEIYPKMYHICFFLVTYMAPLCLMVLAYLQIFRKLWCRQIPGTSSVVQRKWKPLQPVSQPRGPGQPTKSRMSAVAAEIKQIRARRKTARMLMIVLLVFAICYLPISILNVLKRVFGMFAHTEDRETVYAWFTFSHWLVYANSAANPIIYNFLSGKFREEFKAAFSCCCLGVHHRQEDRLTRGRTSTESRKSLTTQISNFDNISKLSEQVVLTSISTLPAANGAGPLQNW
In words: Agonist activity at human OX2R expressed in CHO cells. The assay is classed as functional, cell-based.

Consider `CCN(C(=O)N[C@@H](C1CCCC(F)(F)C1)C(F)(F)F)[C@H](C)c1cccc(-c2cn3ccnc3c(OC)n2)c1` (stereo partly specified), for which the EC50 is 900 pM.

A word on the EC50: it is the concentration at which the effect is half-maximal. A low value points to an effect from little substance.
